Experimental data published in US20070093469A1, “Substituted azetidine compounds as cyclooxygenase-1-cyclooxygenase-2 inhibitors, and their preparation and use as medicaments” (LABORATORIOS DEL DR. ESTEVE S.A, priority 2004, published 2007).

Assays:
[1] = target: T1, Cox-1 (Homo sapiens, UniProt P23219); assay: Cox-1 activity in human whole blood (TXB2); type: cell-based; conditions: read-out: hWB inhibition COX-1 IC50
T1 construct: from tissue; host or cells: fresh human whole blood
Protocol: (§1) II. Determination of Cox-1- and Cox-2-Activity in Human Whole Blood
(§2) The Cox-1- and Cox-2-activity in human whole blood is determined according to a modification of the method described in the publication of C. Brideau et al., “A human whole blood assay for clinical evaluation of biochemical efficacy of cyclooxygenase inhibitors”, Inflamm Res 1996; 45: 68-74. The respective part of the description is hereby incorporated by reference and forms part of the present disclosure.
For Cox-1 activity determination, fresh human blood is distributed in a volume of 0.5 ml to silicone Eppendorf tubes, into which 2 μl of the compound to be tested or dimethylsulfoxide (DMSO) at a final concentration of 0.4% (volume/volume). The tubes are inverted for homogenization and incubated for 1 hour at 37° C. under slight stirring. Afterwards they are centrifuged for 15 min at 10500 g and 100 μl of serum is collected. Proteins are precipitated by the addition of 400 μl of methanol to each tube, tubes were centrifuged for 10 minutes at 5000 g and 300 μl of supernatant is aspirated and then dried under nitrogen atmosphere.
Tromboxane B2 (TXB2) concentration is quantified using an assay kit (Caymann Chemical, Ann Arbor, Mich., U.S.A., Catalogue number 519031) after reconstitution into 300 μl assay buffer supplied in the assay kit.

[2] = target: T2, Cox-2 (Homo sapiens, UniProt P35354); assay: Cox-2 activity in human whole blood (LPS, PGE2); type: cell-based; conditions: read-out: hWB inhibition COX-2 IC50
T2 construct: 0.5 ml of fresh human blood; from tissue; host or cells: fresh human whole blood stimulated with E. coli 0111:B4 LPS
T2 sequence (P35354 18-604): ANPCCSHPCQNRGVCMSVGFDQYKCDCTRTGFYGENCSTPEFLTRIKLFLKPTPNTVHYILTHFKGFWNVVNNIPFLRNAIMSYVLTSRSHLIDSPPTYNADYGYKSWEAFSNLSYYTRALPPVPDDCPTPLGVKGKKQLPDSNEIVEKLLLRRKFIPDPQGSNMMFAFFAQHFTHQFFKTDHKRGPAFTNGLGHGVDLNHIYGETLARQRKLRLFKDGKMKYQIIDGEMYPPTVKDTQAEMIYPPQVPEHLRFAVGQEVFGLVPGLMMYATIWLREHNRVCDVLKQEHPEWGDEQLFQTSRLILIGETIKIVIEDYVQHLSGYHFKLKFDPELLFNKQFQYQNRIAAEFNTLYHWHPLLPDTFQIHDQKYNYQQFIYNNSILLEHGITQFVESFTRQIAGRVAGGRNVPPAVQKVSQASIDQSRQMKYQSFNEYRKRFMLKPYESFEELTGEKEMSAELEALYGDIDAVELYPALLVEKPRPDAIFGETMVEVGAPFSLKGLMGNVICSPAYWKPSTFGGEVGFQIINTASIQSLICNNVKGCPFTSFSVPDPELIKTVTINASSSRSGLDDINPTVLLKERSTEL
Protocol: as §1, §2
For Cox-2 activity determination, tubes are prepared with 2 μl of the compound to be tested or DMSO, 12 μg/ml of aspirine, 9 μl of 1% (weight/volume) sodium heparine and 0.5 ml of fresh human blood. Samples are pre-incubated at 37° C. during 15 minutes and E. coli 0111:B4 LPS (from Sigma Chemical, St. Louis, Mo. U.S.A., catalogue number L-3012) are added for incubation during 24 h at 37° C. The samples are centrifuged for 100 μl of plasma collection. 400 μl of Ethyl acetate and 1% (volume/volume) methanol are added to each sample and the tubes are stirred and centrifuged for 10 minutes at 5000 g at 4° C. 300μl of supernatant are aspirated and evaporated under nitrogen atmosphere. Prostaglandin E2 concentration is quantified using an assay kit from Cayman Chemical, Ann-Arbor, Mich., U.S.A. (Catalogue number: 514010 ) after reconstitution into 300 μl assay buffer supplied in the assay kit.

[3] = system: PGE2 production in rat inflammatory exudate; assay: PGE2 production in rat inflammatory exudate; type: in vivo; conditions: rats, oral route, carrageenan sponge implant, read-out: PGE2 Inflam. exudade ED50
Protocol: VI: PGE2 Production in Rat Inflammatory Exudate and Gastric Mucosa
The PGE2 production in rat inflammatory exudate and gastric mucosa is carried out as described in the publication of O Tofanetti et al., “Effect of nimesulide on cyclo-oxygenase activity in rat gastric mucosa and inflammatory exudate”, Med Sci Res 17, 745-746 (1989). The respective part of the description is hereby incorporated by reference and forms part of the present disclosure.
For this text 6 male wistar rats (Interfauna-St Feliú de Codines, Barcelona) of approximately 200 g (each approximately 6 weeks of age) are used. The compounds to be tested are administered via oral route in gum Arabic at 5% (weight/volume) at a rate of 10 ml/kg.
One hour after administration of the compounds and under halothane anaesthesia, each rat is implanted subcutaneously in the interescapular area a 40×15×5 mm polyester sponge, soaked in a 0.5% suspension of carrageenan. Rats are sacrificed 6 hours after the implant, the sponges are removed and squeezed. The exudates are collected and centrifuged at 6000×G for 15 minutes.
The rats's stomachs are removed and the gastric mucosa is detached from the underlying layers and by means of a 10 mm diameter die, mucosa samples from an area between the gastric corpus and pyloric antrum are taken. The mucosal PGE2 is extracted. PGE2 concentrations from the inflammatory exudates and the gastric mucosa are determined by means of inmmunoassay reagents of Cayman Chemical kit, Ann Arbor, Mich., U.S.A. (Catalogue number: 514010) according to the manufacturer's instructions.

T1 sequence (P23219 24-599): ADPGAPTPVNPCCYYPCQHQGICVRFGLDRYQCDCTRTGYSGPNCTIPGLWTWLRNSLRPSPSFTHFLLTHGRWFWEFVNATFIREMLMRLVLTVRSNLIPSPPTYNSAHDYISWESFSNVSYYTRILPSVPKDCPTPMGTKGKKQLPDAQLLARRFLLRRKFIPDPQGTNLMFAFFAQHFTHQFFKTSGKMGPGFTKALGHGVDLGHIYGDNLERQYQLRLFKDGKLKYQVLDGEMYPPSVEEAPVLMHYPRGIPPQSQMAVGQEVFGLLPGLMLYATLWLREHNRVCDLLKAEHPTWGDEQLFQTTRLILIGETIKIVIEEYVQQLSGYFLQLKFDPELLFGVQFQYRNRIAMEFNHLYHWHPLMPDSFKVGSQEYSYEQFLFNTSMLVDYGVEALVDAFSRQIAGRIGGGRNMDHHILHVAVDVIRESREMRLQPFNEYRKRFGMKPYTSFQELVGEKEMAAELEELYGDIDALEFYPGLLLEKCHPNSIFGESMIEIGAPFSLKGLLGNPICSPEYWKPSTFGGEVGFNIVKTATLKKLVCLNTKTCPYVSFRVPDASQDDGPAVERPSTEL

SMILES | IC50 [1] | IC50 [2] | ED50 [3] | melting point
CC(C)(C)c1cc(C(=O)N2CC(O)C2)cc(C(C)(C)C)c1 [Example 2, (3,5-di-tert-butyl-phenyly)-(3-hydroxy-azetidin-1-yl)-methanone] | 0.5 µM | 0.8 µM | 5.9 mg/kg | 146 to 149 °C
CC1C(O)CN1C(=O)c1cc(C(C)(C)C)c(O)c(C(C)(C)C)c1 (stereo not drawn) [Example 4, (3,5-di-tert-butyl-4-hydroxy-phenyl)-(3-hydroxy-2-methyl-azetidin-1-yl)-methanone] | 0.5 µM | 0.5 µM | 5.8 mg/kg | 162 to 166 °C
CC(C)(C)c1cc(C(=O)N2CC(O)C2)cc2c1OCC2(C)C [Example 14, (7-tert-butyl-3,3-dimethyl-2,3-dihydro-benzofuran-5-yl)-(3-hydroxy-azetidin-1-yl)-methanone] | 0.05 µM | 0.1 µM | 1.8 mg/kg | 144 to 148 °C
